In patent publication USRE44704E1, “Compositions and methods for treating cancer using immunoconjugates and chemotherapeutic agents” (Immunogen Inc., priority 1999, dated 2014):
Like-named read-outs stand apart in the source and are kept apart here.

Assays:
[1] = tested on: human colon cancer HT-29 cells; experiment: Anti-tumor effect of C242-DM1, CPT-11 and their combination in established subcutaneous HT-29 xenograft model (Example 7, FIG. 10); type: in vivo; conditions: HT-29 s.c. xenografts, SCID mice, tumors about 80 mm^3 at start; CPT-11 50 mg/kg×2 q3d i.v.; C242-DM1 DM1 dose 75 μg/kg×5 qd i.v.
Description: (§1) A control group of animals received phosphate-buffered saline (PBS) using the same schedule as the animals in group 2. Tumor growth was monitored by measuring tumor size twice per week. Tumor size was calculated using the formula: length×width×height×½.

[2] = tested on: human small cell lung cancer SW-2 cells; experiment: Anti-tumor effect of huN901-DM1, docetaxel and their combination in established subcutaneous SW-2 xenograft model (Example 4, FIG. 7); type: in vivo; conditions: SW-2 s.c. xenografts, SCID mice, tumors about 100 mm^3 at start; docetaxel 5 mg/kg×5 q2d i.v.; huN901-DM1 DM1 dose 75 μg/kg×5 qd i.v.
Description: Tumor size was calculated with the formula: length×width×height×½.
In 3 out of 6 animals in this treatment group, the tumor was eradicated—resulting in cures lasting greater than 200 days. In the remaining 3 animals in this group, there was a tumor growth delay of 52 days, which is 24 days longer than the calculated additive effect.

[3] = tested on: human lung adenocarcinoma NCI-H441 cells; conditions: NCI-H441 s.c. xenografts, SCID mice, tumors about 125 mm^3 at start; paclitaxel 15 mg/kg×5 q2d i.p.
Description: as §1

[4] = tested on: NCI N417 cells (small cell lung cancer xenografts); type: in vivo; conditions: NCI N417 s.c. xenografts, SCID mice, tumors approx. 100 mm^3 at start; huN901-DM1 DM1 dose 75 μg/kg/d×5 i.v.; paclitaxel 10 mg/kg/d×5 i.p.
Description: In this experiment, a low, non-curative dose of huN901-DM1 was used with an optimal does of paclitaxel (Sigma Chemical Co., St. Louis, Mo.). SCID mice (7 animals per group) were inoculated subcutaneously with NCI N417 cells (8×10^6 cells/animal). After the tumors were well-established (average tumor size was approximately 100 mm^3), one group of animals was treated with huN901-DM1 at a DM1 dose of 75 μg/kg/d×5, administered i.v. everyday. A second group of animals was treated with paclitaxel at a dose of 10 mg/kg/d×5, administered by i.p. everyday. […] A fourth, control group of animals was left untreated. Tumor size was measured as described by Liu et al, Proc. Natl. Acad. Sci., 93:8618-8623 (1996). Animals were also monitored for weight loss as an indicator of signs of toxicity.
In the control group of animals, the tumors grew rapidly to a size of about 900 mm^3 by Day 28 post-tumor inoculation. In animals treated with either huN901-DM1 or paclitaxel, there was a modest anti-tumor effect with a tumor growth delay of 4 days in each case.

[5] = tested on: human small cell lung cancer SW-2 cells; experiment: Anti-tumor effect of huN901-DM1, topotecan and their combination in established subcutaneous SW-2 xenograft model (Example 5, FIG. 8); type: in vivo; conditions: SCID mice
Description: FIG. 8 is a graph comparing the anti-tumor activity of (i) a control, (ii) huN901-DM1, (iii) topotecan, and (iv) the combination of huN901-DM1 and topotecan, against small cell lung cancer xenografts in SCID mice.
The anti-tumor effect of a combination of a low dose of huN901-DM1 and topotecan (available as HYCAMTIN® from SmithKline Beecham Pharmaceuticals), one of the approved drugs for the treatment of small cell lung cancer (SCLC) in humans, was evaluated in an established subcutaneous xenograft model of SCLC. SCID mice (24 animals) were inoculated with human small cell lung cancer SW-2 cells (8×10^6 cells/animal) injected subcutaneously into the right flank of the mice. When the tumors reached about 80 mm^3 in size, the mice were randomly divided into four groups (6 animals per group). The first group of mice was treated with topotecan (1.4 mg/kg×5, qd) administered i.v. A second group of animals was treated with huN901-DM1 (DM1 dose of 100 μg/kg×5, qd) administered i.v. The third group of mice received a combination of topotecan and huN901-DM1, using the same doses and schedules as in groups 1 and 2. A control group of animals received phosphate-buffered saline (PBS) using the same schedule as the animals in group 2. Tumor growth was monitored by measuring tumor size twice per week. Tumor size was calculated using the formula: length×width×height×½.

[6] = tested on: NCI N417 cells (small cell lung cancer xenografts); experiment: Anti-tumor activity of huN901-DM1, cisplatin plus etoposide, and the triple combination against established NCI N417 xenografts (Example 3, FIG. 6); type: in vivo; conditions: NCI N417 s.c. xenografts, SCID mice; huN901-DM1 DM1 dose 75 μg/kg/d×5 i.v.; cisplatin 2 mg/kg/d×3 i.v. every other day; etoposide 8 mg/kg/d×3 every other day
Description: In this experiment, a low, non-curative dose of huN901-DM1 was used with an optimal dose of cisplatin (Sigma Chemical Co., St. Louis, Mo.) and etoposide (Sigma Chemical Co., St. Louis, Mo.). SCID mice (7 animals per group) were inoculated subcutaneously with NCI N417 cells (8×10^6 cells/animal). After the tumors were well-established (average tumor size was approximately 100 mm^3), one group of animals was treated with huN901-DM1 at a DM1 dose of 75 μg/kg/d×5, administered i.v. everyday. A second group of animals was treated with cisplatin (at a dose of 2 mg/kg/d×3, administered by i.v. ever other day) and etoposide (at a dose of 8 mg/kg/d×3, administered every other day). A third group of animals was treated with huN901-DM1, cisplatin and etoposide using the same dose and schedule used for a the individual agents. A fourth, control group of animals was left untreated. Tumor size was measured as described by Liu et al, Proc. Natl. Acad. Sci., 93:8618-8623 (1996). Animals were also monitored for weight loss as an indicator of signs of toxicity.
In the control group of animals, the tumors grew rapidly to a size of about 900 mm^3 by Day 28 post-tumor inoculation. In animals treated with either huN901-DM1 or cisplatin and etoposide, there was a modest anti-tumor effect with a tumor growth delay of 4 days in each case.

Molecule: CCc1c2c(nc3ccc(OC(=O)N4CCC(N5CCCCC5)CC4)cc13)-c1cc3c(c(=O)n1C2)COC(=O)[C@]3(O)CC [CPT-11, irinotecan]
- tumor growth delay [1]: 6 days

Molecule: CC(=O)O[C@@]12CO[C@@H]1C[C@H](O)[C@@]1(C)C(=O)[C@H](O)C3=C(C)[C@@H](OC(=O)[C@H](O)[C@@H](NC(=O)OC(C)(C)C)c4ccccc4)C[C@@](O)([C@@H](OC(=O)c4ccccc4)[C@H]21)C3(C)C [docetaxel]
- tumor growth delay [2]: 8 days

Molecule: CC(=O)O[C@H]1C(=O)[C@@]2(C)[C@H]([C@H](OC(=O)c3ccccc3)[C@]3(O)C[C@H](OC(=O)[C@H](O)[C@@H](NC(=O)c4ccccc4)c4ccccc4)C(C)=C1C3(C)C)[C@]1(OC(C)=O)CO[C@@H]1C[C@@H]2O [paclitaxel]
- tumor growth delay [3]: 4 days
- tumor growth delay [4]: 4 days

Molecule: CC[C@@]1(O)C(=O)OCc2c1cc1n(c2=O)Cc2cc3c(CN(C)C)c(O)ccc3nc2-1 [topotecan]
- tumor growth delay ([5]; SW-2 s.c. xenografts, tumors about 80 mm^3 at start, topotecan 1.4 mg/kg×5 qd i.v.): 12 days

B1: huN901-DM1: maytansinoid DM1 conjugated via SPP disulfide link to humanized monoclonal antibody N901 (binds CD56); 3.9 DM1 molecules per antibody (conjugate, chains of the INN, looked up)
VH: QVQLVESGGGVVQPGRSLRLSCAASGFTFSSFGMHWVRQAPGKGLEWVAYISSGSFTIYYADSVKGRFTISRDNSKNTLYLQMNSLRAEDTAVYYCARMRKGYAMDYWGQGTLVTVSS
VL: DVVMTQSPLSLPVTLGQPASISCRSSQIIIHSDGNTYLEWFQQRPGQSPRRLIYKVSNRFSGVPDRFSGSGSGTDFTLKISRVEAEDVGVYYCFQGSHVPHTFGQGTKVEIK
modifications: DM1 via SPP disulfide linker
notes: 3.9 DM1 molecules per antibody
- tumor growth delay [6]: 4 days
- tumor growth delay [2]: 20 days
- tumor growth delay [4]: 4 days
- animals with complete tumor regression ([5]; SW-2 xenografts, 6 animals per group, topotecan 1.4 mg/kg×5 qd i.v., huN901-DM1 100 μg/kg×5 qd i.v.): 3 animals
- tumor-growth delay in 3 out of 6 animals ([5]; SW-2 xenografts, huN901-DM1 DM1 dose 100 μg/kg×5 qd i.v., the 3 animals without complete regression): 34 days
